Assay results reported in the supplement of paper PMC11061612.

Columns and labels:
Experiment in all cases: Bliss excess, mean over the matrix (fraction); higher = more synergy
[1] = tested on: CAL-62 (Thyroid Gland Carcinoma)
In short: (§1)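 Bliss excess equals the observed combination effect minus the expected value EA + EB − EA·EB, where EA and EB are the effects of each agent alone. Combination Emax is the second-highest inhibition within the matrix. Inhibition was scaled from CellTiter-Glo 2.0 luminescence, with 0 set by vehicle wells and 1 by blank wells, after 72 hours of two-drug dosing of cells plated in 1536-well plates.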

[2] = tested on: LK-2 (Squamous Cell Lung Carcinoma)
In short: as §1

[3] = tested on: MFE-280 (Endometrial Carcinoma)
In short: as §1

[4] = tested on: PANC-03-27 (Pancreatic Carcinoma)
In short: as §1

[5] = tested on: PC-3_[JPC-3] (Lung Adenocarcinoma)
In short: as §1

[6] = tested on: SHP-77 (Small Cell Lung Carcinoma)
In short: as §1

SK-MEL-2 (Melanoma) = tested on: SK-MEL-2 (Melanoma)
In short: as §1

[7] = tested on: VAL (B-Cell Non-Hodgkin's Lymphoma)
In short: as §1

SMILES	Bliss excess [1]	Bliss excess [2]	Bliss excess [3]	Bliss excess [4]	Bliss excess [5]	Bliss excess [6]	Bliss excess (SK-MEL-2 (Melanoma))	Bliss excess [7]
C[C@@H](Nc1cc(F)cc(F)c1)c1cc(C(=O)N(C)C)cc2c(=O)cc(N3CCOCC3)oc12 [AZD8186] + C1CN(CCC1(C(=O)N[C@@H](CCO)C2=CC=C(C=C2)Cl)N)C3=NC=NC4=C3C=CN4 [AZD5363] (first compound max 10 µM, 7x7, partner max 10 µM)	-0.0203	0.0061	-0.0505	-0.0239	-0.0245	-0.0913	-0.0285	-0.0608
N#Cc1cnc(Nc2cc(NC[C@H]3CNCCO3)c(C(F)(F)F)cn2)cn1 [SRA737] + Nc1ccn([C@@H]2O[C@H](CO)[C@@H](O)C2(F)F)c(=O)n1 [Gemcitabine] (first compound max 10 µM, 7x7, partner max 0.3 µM)	0.0436	0.141	0.0527	-0.0023	0.0514	0.141	0.0686	-0.125
O=C(c1cc(Cc2n[nH]c(=O)c3ccccc23)ccc1F)N1CCN(C(=O)C2CC2)CC1 [Olaparib] + Cc1c2c(nn1C)CSCc1cc(n(C)n1)CSc1cc(c3ccccc3c1)OCCCc1c(C(=O)O)n(C)c3c-2c(Cl)ccc13 [AZD5991] (first compound max 10 µM, 7x7, partner max 1 µM)	-0.0483	0.041	-0.0341	-0.0462	-0.0456	0.0008	0.0379	0.0078
N#Cc1cnc(Nc2cc(NC[C@H]3CNCCO3)c(C(F)(F)F)cn2)cn1 [SRA737] + CCc1c2c(nc3ccc(O)cc13)-c1cc3c(c(=O)n1C2)COC(=O)[C@]3(O)CC [SN-38] (first compound max 10 µM, 7x7, partner max 0.3 µM)	-0.0228	0.154	0.0626	-0.0648	-0.0536	0.13	0.0931	-0.122
C[C@@H](Oc1cc(-c2cnn(C3CCNCC3)c2)cnc1N)c1c(Cl)ccc(F)c1Cl [Crizotinib] + CC1=C(C(=CC=C1)Cl)NC(=O)C2=CN=C(S2)NC3=CC(=NC(=N3)C)N4CCN(CC4)CCO [Dasatinib] (first compound max 10 µM, 7x7, partner max 2 µM)	0.0464	-0.0103	0.0091	0.0688	-0.0005	-0.0482	-0.0362	-0.0228
CN(CCO)CC[C@H](CSc1ccccc1)Nc1ccc(S(=O)(=O)NC(=O)c2ccc(N3CCC([C@@H](O)c4ccccc4-c4ccc(Cl)cc4)CC3)cc2)cc1S(=O)(=O)C(F)(F)F [AZD4320] + CC(=O)O[C@H]1C(=O)[C@@]2(C)[C@H]([C@H](OC(=O)c3ccccc3)[C@]3(O)C[C@H](OC(=O)[C@H](O)[C@@H](NC(=O)c4ccccc4)c4ccccc4)C(C)=C1C3(C)C)[C@]1(OC(C)=O)CO[C@@H]1C[C@@H]2O [Paclitaxel] (first compound max 1 µM, 7x7, partner max 3 µM)	0.0036	0.0318	0.171	0.0599	0.0232	-0.0369	0.148	0.0018
Cc1cc2ncnn2cc1Nc1ncc2c(n1)n(C1CCOCC1)c(=O)n2C [AZD7648] + COc1cc([C@@H]2c3cc4c(cc3[C@@H](O[C@@H]3O[C@@H]5CO[C@@H](C)O[C@H]5[C@H](O)[C@H]3O)[C@H]3COC(=O)[C@H]23)OCO4)cc(OC)c1O [Etoposide] (first compound max 10 µM, 7x7, partner max 10 µM)	0.127	0.0713	-0.0236	-0.0401	0.0079	0.0139	-0.0163	-0.0395
Cc1c2c(nn1C)CSCc1cc(n(C)n1)CSc1cc(c3ccccc3c1)OCCCc1c(C(=O)O)n(C)c3c-2c(Cl)ccc13 [AZD5991] + Nc1ccn([C@@H]2O[C@H](CO)[C@@H](O)C2(F)F)c(=O)n1 [Gemcitabine] (first compound max 1 µM, 7x7, partner max 0.3 µM)	-0.024	0.0117	-0.0363	0.0182	-0.0333	0.0181	-0.0657	-0.0324
O=C(c1cc(Cc2n[nH]c(=O)c3ccccc23)ccc1F)N1CCN(C(=O)C2CC2)CC1 [Olaparib] + CC1(C)CCC(CN2CCN(c3ccc(C(=O)NS(=O)(=O)c4ccc(NCC5CCOCC5)c([N+](=O)[O-])c4)c(Oc4cnc5[nH]ccc5c4)c3)CC2)=C(c2ccc(Cl)cc2)C1 [Venetoclax] (first compound max 10 µM, 7x7, partner max 1 µM)	-0.0329	0.0039	-0.053	-0.0675	-0.0354	-0.0028	0.0044	0.0181
C[C@@H]1COCCN1c1cc(C2([S@](C)(=N)=O)CC2)nc(-c2ccnc3[nH]ccc23)n1 [AZD6738] + Nc1ccn([C@@H]2O[C@H](CO)[C@@H](O)C2(F)F)c(=O)n1 [Gemcitabine] (first compound max 10 µM, 7x7, partner max 0.3 µM)	-0.0064	0.128	0.0731	-0.0185	0.0434	0.0746	0.0586	-0.108
C[C@@H](Nc1cc(F)cc(F)c1)c1cc(C(=O)N(C)C)cc2c(=O)cc(N3CCOCC3)oc12 [AZD8186] + CC(=O)c1c(C)c2cnc(Nc3ccc(N4CCNCC4)cn3)nc2n(C2CCCC2)c1=O [Palbociclib] (first compound max 10 µM, 7x7, partner max 10 µM)	0.0294	0.0023	-0.0424	0.0614	-0.023	-0.0692	-0.0346	-0.0615
O=C(c1cc(Cc2n[nH]c(=O)c3ccccc23)ccc1F)N1CCN(C(=O)C2CC2)CC1 [Olaparib] + COc1nnc2ccc(N3CCC(c4ccc(OCCN5CCN(C)C(=O)[C@H]5C)cc4)CC3)nn12 [AZD5153] (first compound max 10 µM, 7x7, partner max 1 µM)	-0.0556	-0.0571	-0.0147	-0.0776	-0.0518	0.0113	-0.0421	-0.0784
CC1(C)CCC(CN2CCN(c3ccc(C(=O)NS(=O)(=O)c4ccc(NCC5CCOCC5)c([N+](=O)[O-])c4)c(Oc4cnc5[nH]ccc5c4)c3)CC2)=C(c2ccc(Cl)cc2)C1 [Venetoclax] + CS(=O)(=O)CCNCc1ccc(-c2ccc3ncnc(Nc4ccc(OCc5cccc(F)c5)c(Cl)c4)c3c2)o1 [Lapatinib] (first compound max 1 µM, 7x7, partner max 10 µM)	-0.0442	0.0165	-0.0477	-0.0535	-0.0332	0.0197	-0.0207	-0.0033
Cc1c2c(nn1C)CSCc1cc(n(C)n1)CSc1cc(c3ccccc3c1)OCCCc1c(C(=O)O)n(C)c3c-2c(Cl)ccc13 [AZD5991] + CS(=O)(=O)CCNCc1ccc(-c2ccc3ncnc(Nc4ccc(OCc5cccc(F)c5)c(Cl)c4)c3c2)o1 [Lapatinib] (first compound max 1 µM, 7x7, partner max 10 µM)	-0.0118	-0.019	-0.012	-0.0485	0.0072	0.0045	-0.0147	-0.137
CN(CCO)CC[C@H](CSc1ccccc1)Nc1ccc(S(=O)(=O)NC(=O)c2ccc(N3CCC([C@@H](O)c4ccccc4-c4ccc(Cl)cc4)CC3)cc2)cc1S(=O)(=O)C(F)(F)F [AZD4320] + Nc1ccn([C@@H]2O[C@H](CO)[C@@H](O)C2(F)F)c(=O)n1 [Gemcitabine] (first compound max 1 µM, 7x7, partner max 0.3 µM)	0.0487	0.083	-0.0216	-0.0203	0.016	0.0333	-0.0453	-0.0044
Cc1c2c(nn1C)CSCc1cc(n(C)n1)CSc1cc(c3ccccc3c1)OCCCc1c(C(=O)O)n(C)c3c-2c(Cl)ccc13 [AZD5991] + CC(=O)O[C@H]1C(=O)[C@@]2(C)[C@H]([C@H](OC(=O)c3ccccc3)[C@]3(O)C[C@H](OC(=O)[C@H](O)[C@@H](NC(=O)c4ccccc4)c4ccccc4)C(C)=C1C3(C)C)[C@]1(OC(C)=O)CO[C@@H]1C[C@@H]2O [Paclitaxel] (first compound max 1 µM, 7x7, partner max 3 µM)	-0.0941	0.0165	-0.0363	0.0181	-0.0256	-0.0043	-0.0341	-0.0913
